Measurements: article PMC3914206

Key:
Format in all cases: binding
Settings in all cases: Compound Concentration 10 µM
panel of 442 kinases [1] = molecular target: T1, panel of 442 kinases (Homo sapiens, UniProt O75116)
T1 construct: purchased KINOMEscan
Excerpt: (§1) We assessed the selectivity of members of this scaffold using the KINOMEscan methodology across a near comprehensive panel of 442 kinases [[18,27]].

panel of 442 kinases [2] = molecular target: T2, panel of 442 kinases (Homo sapiens, UniProt P09769)
T2 construct: purchased KINOMEscan
T2 sequence (P09769 whole entry): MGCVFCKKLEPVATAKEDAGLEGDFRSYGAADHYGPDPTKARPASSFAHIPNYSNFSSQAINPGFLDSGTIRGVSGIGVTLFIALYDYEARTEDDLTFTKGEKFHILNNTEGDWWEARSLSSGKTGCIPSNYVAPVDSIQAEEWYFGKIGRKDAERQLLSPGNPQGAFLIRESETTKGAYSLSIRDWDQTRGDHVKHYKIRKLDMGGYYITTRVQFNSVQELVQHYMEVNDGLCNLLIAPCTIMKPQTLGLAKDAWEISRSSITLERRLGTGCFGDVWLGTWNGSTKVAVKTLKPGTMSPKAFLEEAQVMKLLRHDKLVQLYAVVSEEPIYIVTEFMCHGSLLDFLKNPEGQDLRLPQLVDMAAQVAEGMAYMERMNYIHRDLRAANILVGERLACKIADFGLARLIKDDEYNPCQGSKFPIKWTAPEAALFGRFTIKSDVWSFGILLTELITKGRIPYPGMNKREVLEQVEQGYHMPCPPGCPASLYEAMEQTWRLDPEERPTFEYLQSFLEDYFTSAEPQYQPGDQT
Excerpt: as §1

panel of 442 kinases [3] = molecular target: T3, panel of 442 kinases (Homo sapiens, UniProt Q8IY84)
T3 construct: purchased KINOMEscan
T3 sequence (Q8IY84 whole entry): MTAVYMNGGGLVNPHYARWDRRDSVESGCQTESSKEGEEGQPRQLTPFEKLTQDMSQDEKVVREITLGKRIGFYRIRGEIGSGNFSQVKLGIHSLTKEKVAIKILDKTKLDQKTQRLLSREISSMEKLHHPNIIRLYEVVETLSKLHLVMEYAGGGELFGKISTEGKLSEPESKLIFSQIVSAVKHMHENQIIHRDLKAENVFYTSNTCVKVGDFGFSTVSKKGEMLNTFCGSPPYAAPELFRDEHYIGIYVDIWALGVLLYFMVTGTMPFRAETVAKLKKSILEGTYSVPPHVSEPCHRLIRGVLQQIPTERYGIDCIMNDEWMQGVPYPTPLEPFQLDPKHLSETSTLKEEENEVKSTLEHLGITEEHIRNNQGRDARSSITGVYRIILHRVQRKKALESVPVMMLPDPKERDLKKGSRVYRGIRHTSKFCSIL
Excerpt: as §1

panel of 442 kinases [4] = molecular target: T4, panel of 442 kinases (Homo sapiens, UniProt P32298)
T4 construct: purchased KINOMEscan
T4 sequence (P32298 whole entry): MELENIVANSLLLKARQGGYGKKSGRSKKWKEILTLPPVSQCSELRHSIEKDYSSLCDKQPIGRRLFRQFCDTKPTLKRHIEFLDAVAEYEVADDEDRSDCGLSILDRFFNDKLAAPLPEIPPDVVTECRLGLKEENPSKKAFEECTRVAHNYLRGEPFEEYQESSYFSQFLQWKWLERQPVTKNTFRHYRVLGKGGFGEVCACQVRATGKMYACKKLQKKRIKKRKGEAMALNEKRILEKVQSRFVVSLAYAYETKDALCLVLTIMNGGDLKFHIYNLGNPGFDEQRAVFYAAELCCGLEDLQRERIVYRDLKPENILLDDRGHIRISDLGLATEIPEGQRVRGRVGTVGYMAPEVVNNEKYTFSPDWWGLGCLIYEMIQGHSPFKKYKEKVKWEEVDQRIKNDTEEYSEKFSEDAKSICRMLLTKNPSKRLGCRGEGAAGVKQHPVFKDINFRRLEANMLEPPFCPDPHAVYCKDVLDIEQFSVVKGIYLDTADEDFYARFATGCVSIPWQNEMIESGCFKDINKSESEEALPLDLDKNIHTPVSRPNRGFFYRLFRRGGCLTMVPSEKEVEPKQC
Excerpt: as §1

T1 sequence (O75116 whole entry): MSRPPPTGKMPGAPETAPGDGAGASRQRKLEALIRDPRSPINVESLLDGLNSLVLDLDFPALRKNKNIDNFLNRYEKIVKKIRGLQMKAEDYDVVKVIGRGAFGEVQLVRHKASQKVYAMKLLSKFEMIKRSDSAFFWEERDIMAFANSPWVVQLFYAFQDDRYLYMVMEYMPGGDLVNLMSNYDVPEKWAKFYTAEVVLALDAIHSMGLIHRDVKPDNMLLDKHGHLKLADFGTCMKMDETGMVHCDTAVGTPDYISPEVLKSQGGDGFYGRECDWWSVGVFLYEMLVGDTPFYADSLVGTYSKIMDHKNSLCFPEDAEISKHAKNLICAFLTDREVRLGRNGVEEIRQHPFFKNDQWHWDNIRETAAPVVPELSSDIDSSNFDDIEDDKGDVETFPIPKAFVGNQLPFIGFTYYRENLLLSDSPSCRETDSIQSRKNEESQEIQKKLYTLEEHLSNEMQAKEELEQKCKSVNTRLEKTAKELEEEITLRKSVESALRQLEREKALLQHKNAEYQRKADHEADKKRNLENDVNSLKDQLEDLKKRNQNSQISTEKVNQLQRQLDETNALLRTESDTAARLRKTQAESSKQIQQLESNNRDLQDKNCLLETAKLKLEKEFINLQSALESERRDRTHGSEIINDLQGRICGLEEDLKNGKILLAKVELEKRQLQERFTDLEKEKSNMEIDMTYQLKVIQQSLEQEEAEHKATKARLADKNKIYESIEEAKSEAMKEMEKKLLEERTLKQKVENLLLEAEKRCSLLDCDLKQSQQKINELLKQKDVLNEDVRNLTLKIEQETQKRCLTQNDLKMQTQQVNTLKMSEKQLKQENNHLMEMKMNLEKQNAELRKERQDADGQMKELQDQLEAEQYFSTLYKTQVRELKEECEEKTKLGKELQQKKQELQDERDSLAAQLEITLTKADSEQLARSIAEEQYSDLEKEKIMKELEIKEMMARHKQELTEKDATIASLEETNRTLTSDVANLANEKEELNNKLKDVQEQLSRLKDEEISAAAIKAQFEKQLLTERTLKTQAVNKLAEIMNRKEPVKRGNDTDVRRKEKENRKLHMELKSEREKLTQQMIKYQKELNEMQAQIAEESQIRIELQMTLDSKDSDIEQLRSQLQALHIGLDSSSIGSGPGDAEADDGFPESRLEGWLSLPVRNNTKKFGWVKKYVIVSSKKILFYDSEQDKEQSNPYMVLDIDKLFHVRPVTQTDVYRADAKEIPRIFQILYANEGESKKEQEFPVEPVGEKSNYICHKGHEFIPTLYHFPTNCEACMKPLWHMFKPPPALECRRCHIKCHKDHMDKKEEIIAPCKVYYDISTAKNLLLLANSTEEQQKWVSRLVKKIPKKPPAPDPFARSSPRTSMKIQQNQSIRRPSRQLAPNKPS

Compound: COc1cc(C(=O)N2CCC(N3CCN(C)CC3)CC2)ccc1Nc1ncc2c(n1)N(C)c1ccccc1C(=O)N2C [15 (LRRK2-IN-1)]
- KINOMEscan: ROCK2 (panel of 442 kinases [1]): 87
- KINOMEscan: FGR (panel of 442 kinases [2]): 84
- KINOMEscan: NIM1 (panel of 442 kinases [3]): 100
- KINOMEscan: GRK4 (panel of 442 kinases [4]): 86

Compound: CCOc1cc(C(=O)N2CCC(N3CCN(C)CC3)CC2)ccc1Nc1ncc2c(n1)N(C1CCCC1)c1ccccc1C(=O)N2C [Compound 26]
- KINOMEscan: ROCK2 (panel of 442 kinases [1]): 83
- KINOMEscan: FGR (panel of 442 kinases [2]): 99
- KINOMEscan: NIM1 (panel of 442 kinases [3]): 100
- KINOMEscan: GRK4 (panel of 442 kinases [4]): 100

Compound: COc1cc(C(=O)N2CCC(N3CCN(C)CC3)CC2)ccc1Nc1ncc2c(n1)N1CCc3cccc(c31)C(=O)N2C [Compound 24]
- KINOMEscan: ROCK2 (panel of 442 kinases [1]): 65
- KINOMEscan: FGR (panel of 442 kinases [2]): 79

Compound: COc1cc(C(=O)N2CCC(N3CCN(C)CC3)CC2)ccc1Nc1ncc2c(n1)N(C1CCCC1)c1ccccc1C(=O)N2C [Compound 25, 11-cyclopentyl-2-((2-methoxy-4-(4-(4-methylpiperazin-1-yl)piperidine-1-carbonyl)phenyl)amino)-5-methyl-5H-benzo[e]pyrimido[5,4-b][1,4]diazepin-6(11H)-one]
- KINOMEscan: ROCK2 (panel of 442 kinases [1]): 79
- KINOMEscan: FGR (panel of 442 kinases [2]): 98
- KINOMEscan: NIM1 (panel of 442 kinases [3]): 100
- KINOMEscan: GRK4 (panel of 442 kinases [4]): 98
